≈ marks a conversion by molar mass, not a printed value.
Tests used:
MSSA = assay: Broth microdilution MIC, MSSA; format: cell-based, Staphylococcus aureus; conditions: Mueller-Hinton medium, 37° C., 16 hours
Method: (§1) Each member of the pilot library was tested for antibiotic activity. Activity was quantified by measuring the MIC of each derivative against a variety of representative pathogenic bacterial strains using the microdilution protocol (CSLI, Performance Standards for Antimicrobial Susceptibility Testing; Nineteenth Informational Supplement, Clinical and Laboratory Standards Institute, Wayne, Pa., 2009). A. baumannii, E. coli, MSSA, and MRSA were used for initial evaluation. […] Compounds 4d, 4n, and 4o were determined to be the lead compounds.
(§2) Broth Microdilution Method for MIC Determination.
(§3) Overnight cultures of bacterial strain were subcultured to 5×10^5 CFU/mL in Mueller-Hinton medium (Fluka #70192). The resulting bacterial suspension was aliquoted (1.0 mL) into culture tubes. Samples were prepared from these culture tubes containing either 256 μg/mL of specified antibiotic or no test compound as a control. Samples were then aliquoted (200 μL) into the first row of wells of a 96-well microtiter plate in which subsequent wells were prefilled with 100 μL of Mueller-Hinton medium based 5×10^5 CFU/mL bacterial subculture. Using the multichannel pipettor set at 100 μL, row one wells were mixed 8-10 times. Then, 100 μL were withdrawn and transferred to row two. Row two wells were mixed 8-10 times followed by a 100 μL transfer from row two to row three. This procedure was used to serial dilute the rest of the rows of the microtier plate. The microtiter plate sample was then covered with a microtiter plate lid and then placed in a covered plastic container. The chamber was incubated under stationary conditions at 37° C.

E. coli = assay: Broth microdilution MIC, E. coli; format: cell-based; conditions: Mueller-Hinton medium, 37° C., 16 hours
Method: as §1, §2, §3

MRSA ATCC BAA 44 = assay: Broth microdilution MIC, MRSA ATCC BAA 44; format: cell-based, Staphylococcus aureus; conditions: for MIC MRSA: Table 2 pilot library screen; for MIC MRSA BAA 44: Table 3 nine-strain screen
Method: as §1
(§4) Once it was noted that compounds were active against MSSA and MRSA, the library was tested against various MRSA strains isolated from a nosocomial environment. MRSA has emerged as a major cause of illness and death in hospitals. These illnesses include lower respiratory tract infections, surgical site infections, cardiovascular infections and pneumonia. Nine different MRSA strains were obtained, and lead compounds 4d and 4o were screened for activity.
as §2, §3

A. baumannii = assay: Broth microdilution MIC, A. baumannii; format: cell-based; conditions: Mueller-Hinton medium, 37° C., 16 hours
Method: as §1, §2, §3

MRSA ATCC BAA 1685 = assay: Broth microdilution MIC, MRSA ATCC BAA 1685; format: cell-based, Staphylococcus aureus
Method: as §4, §2
as §3, with “The microtiter plate sample was then covered with a microtiter plate lid and then placed in a covered plastic container. The chamber was incubated under stationary conditions at 37° C.” left out

MRSA ATCC 33591 = assay: Broth microdilution MIC, MRSA ATCC 33591; format: cell-based, Staphylococcus aureus
Method: as §4, §2
as §3, with “The microtiter plate sample was then covered with a microtiter plate lid and then placed in a covered plastic container. The chamber was incubated under stationary conditions at 37° C.” left out

MRSA ATCC BAA 1556 = assay: Broth microdilution MIC, MRSA ATCC BAA 1556; format: cell-based, Staphylococcus aureus
Method: as §4, §2
as §3, with “The microtiter plate sample was then covered with a microtiter plate lid and then placed in a covered plastic container. The chamber was incubated under stationary conditions at 37° C.” left out

MRSA ATCC BAA 1753 = assay: Broth microdilution MIC, MRSA ATCC BAA 1753; format: cell-based, Staphylococcus aureus
Method: as §4, §2
as §3, with “The microtiter plate sample was then covered with a microtiter plate lid and then placed in a covered plastic container. The chamber was incubated under stationary conditions at 37° C.” left out

MRSA ATCC 43300 = assay: Broth microdilution MIC, MRSA ATCC 43300; format: cell-based, Staphylococcus aureus
Method: as §4, §2
as §3, with “The microtiter plate sample was then covered with a microtiter plate lid and then placed in a covered plastic container. The chamber was incubated under stationary conditions at 37° C.” left out

MRSA ATCC BAA 1770 = assay: Broth microdilution MIC, MRSA ATCC BAA 1770; format: cell-based, Staphylococcus aureus
Method: as §4, §2
as §3, with “The microtiter plate sample was then covered with a microtiter plate lid and then placed in a covered plastic container. The chamber was incubated under stationary conditions at 37° C.” left out

MRSA ATCC 700789 = assay: Broth microdilution MIC, MRSA ATCC 700789; format: cell-based, Staphylococcus aureus
Method: as §4, §2
as §3, with “The microtiter plate sample was then covered with a microtiter plate lid and then placed in a covered plastic container. The chamber was incubated under stationary conditions at 37° C.” left out

MRSA ATCC BAA 811 = assay: Broth microdilution MIC, MRSA ATCC BAA 811; format: cell-based, Staphylococcus aureus
Method: as §4, §2
as §3, with “The microtiter plate sample was then covered with a microtiter plate lid and then placed in a covered plastic container. The chamber was incubated under stationary conditions at 37° C.” left out

Structure (SMILES) | MIC MSSA (MSSA) | MIC E. coli (E. coli) | MIC MRSA (MRSA ATCC BAA 44) | MIC A. baumannii (A. baumannii) | MIC MRSA BAA 1685 (MRSA ATCC BAA 1685) | MIC MRSA 33591 (MRSA ATCC 33591) | MIC MRSA BAA 1556 (MRSA ATCC BAA 1556) | MIC MRSA BAA 1753 (MRSA ATCC BAA 1753) | MIC MRSA 43300 (MRSA ATCC 43300) | MIC MRSA BAA 1770 (MRSA ATCC BAA 1770) | MIC MRSA 700789 (MRSA ATCC 700789) | MIC MRSA BAA 44 (MRSA ATCC BAA 44) | MIC MRSA BAA 811 (MRSA ATCC BAA 811)
Cc1nc(N)n(-c2ccccc2)c1-c1ccccc1 [Compound 4a] | 256 µg/mL (≈ 1030 µM) | 256 µg/mL (≈ 1030 µM) | 256 µg/mL (≈ 1030 µM) | 128 µg/mL (≈ 513 µM) | – | – | – | – | – | – | – | – | –
CCCCCCc1nc(N)n(-c2ccccc2)c1-c1ccccc1 [Compound 4b] | 16 µg/mL (≈ 50.1 µM) | >256 µg/mL | 8 µg/mL (≈ 25 µM) | >256 µg/mL | – | – | – | – | – | – | – | – | –
CCCCCCCc1ccc(-n2c(N)nc(C)c2-c2ccccc2)cc1 [Compound 4d] | 4 µg/mL (≈ 11.5 µM) | >256 µg/mL | 2 µg/mL (≈ 5.76 µM) | 64 µg/mL (≈ 184 µM) | 4 µg/mL (≈ 11.5 µM) | 8 µg/mL (≈ 23 µM) | 4 µg/mL (≈ 11.5 µM) | 4 µg/mL (≈ 11.5 µM) | 2 µg/mL (≈ 5.76 µM) | 8 µg/mL (≈ 23 µM) | 4 µg/mL (≈ 11.5 µM) | 2 µg/mL (≈ 5.76 µM) | 2 µg/mL (≈ 5.76 µM)
CCCCCCCc1ccc(-n2c(N)nc(CCCCCC)c2-c2ccccc2)cc1 [Compound 4e] | >256 µg/mL | >256 µg/mL | 128 µg/mL (≈ 306 µM) | >256 µg/mL | – | – | – | – | – | – | – | – | –
CCCCCCCCCCc1ccc(-n2c(N)nc(C)c2-c2ccccc2)cc1 [Compound 4g] | 32 µg/mL (≈ 82.1 µM) | >256 µg/mL | 4 µg/mL (≈ 10.3 µM) | >256 µg/mL | – | – | – | – | – | – | – | – | –
CCCCCCCCCCc1ccc(-n2c(N)nc(CCCCCC)c2-c2ccccc2)cc1 [Compound 4h] | >256 µg/mL | >256 µg/mL | >256 µg/mL | >256 µg/mL | – | – | – | – | – | – | – | – | –
CCCCCCCCCCc1ccc(-n2c(N)nc(-c3ccccc3)c2-c2ccccc2)cc1 [Compound 4i] | >256 µg/mL | >256 µg/mL | >256 µg/mL | >256 µg/mL | – | – | – | – | – | – | – | – | –
CCCCCCc1nc(N)n(-c2ccccc2)c1-c1ccc(C)cc1 [Compound 4l] | 8 µg/mL (≈ 24 µM) | >256 µg/mL | 4 µg/mL (≈ 12 µM) | >256 µg/mL | – | – | – | – | – | – | – | – | –
CCCc1ccc(-n2c(N)nc(C)c2-c2ccccc2)cc1 [Compound 4n] | 32 µg/mL (≈ 110 µM) | 64 µg/mL (≈ 220 µM) | 32 µg/mL (≈ 110 µM) | 64 µg/mL (≈ 220 µM) | – | – | – | – | – | – | – | – | –
CCCCCc1ccc(-n2c(N)nc(C)c2-c2ccccc2)cc1 [Compound 4o] | 8 µg/mL (≈ 25 µM) | >256 µg/mL | 4 µg/mL (≈ 12.5 µM) | 16 µg/mL (≈ 50.1 µM) | 8 µg/mL (≈ 25 µM) | 8 µg/mL (≈ 25 µM) | 8 µg/mL (≈ 25 µM) | 8 µg/mL (≈ 25 µM) | 8 µg/mL (≈ 25 µM) | 8 µg/mL (≈ 25 µM) | 8 µg/mL (≈ 25 µM) | 4 µg/mL (≈ 12.5 µM) | 8 µg/mL (≈ 25 µM)

The remaining lines, values ahead:

MIC MSSA (MSSA) | MIC E. coli (E. coli) | MIC MRSA (MRSA ATCC BAA 44) | MIC A. baumannii (A. baumannii) | MIC MRSA BAA 1685 (MRSA ATCC BAA 1685) | MIC MRSA 33591 (MRSA ATCC 33591) | MIC MRSA BAA 1556 (MRSA ATCC BAA 1556) | MIC MRSA BAA 1753 (MRSA ATCC BAA 1753) | MIC MRSA 43300 (MRSA ATCC 43300) | MIC MRSA BAA 1770 (MRSA ATCC BAA 1770) | MIC MRSA 700789 (MRSA ATCC 700789) | MIC MRSA BAA 44 (MRSA ATCC BAA 44) | MIC MRSA BAA 811 (MRSA ATCC BAA 811) | Structure (SMILES)
>256 µg/mL | >256 µg/mL | >256 µg/mL | >256 µg/mL | – | – | – | – | – | – | – | – | – | Nc1nc(-c2ccccc2)c(-c2ccccc2)n1-c1ccccc1 [Compound 4c]
>256 µg/mL | >256 µg/mL | >256 µg/mL | >256 µg/mL | – | – | – | – | – | – | – | – | – | CCCCCCCc1ccc(-n2c(N)nc(-c3ccccc3)c2-c2ccccc2)cc1 [Compound 4f]
4 µg/mL (≈ 10.1 µM) | >256 µg/mL | 4 µg/mL (≈ 10.1 µM) | >256 µg/mL | – | – | – | – | – | – | – | – | – | CCCCCCc1nc(N)n(-c2ccc(-c3ccccc3)cc2)c1-c1ccccc1 [Compound 4j]
>256 µg/mL | >256 µg/mL | >256 µg/mL | >256 µg/mL | – | – | – | – | – | – | – | – | – | Nc1nc(-c2ccccc2)c(-c2ccccc2)n1-c1ccc(-c2ccccc2)cc1 [Compound 4k]
>256 µg/mL | >256 µg/mL | >256 µg/mL | >256 µg/mL | – | – | – | – | – | – | – | – | – | Cc1ccc(-c2c(-c3ccccc3)nc(N)n2-c2ccccc2)cc1 [Compound 4m]

From patent US9723837B2, “Imidazole derivatives useful for controlling microbial growth” (North Carolina State University, priority 2012, dated 2017)
